The source of these data is ChEMBL document CHEMBL3832086, “DailyMed|setid=1c5502c7-7731-4d3e-b4fe-7fd44dd5908b | UROXATRAL - alfuzosin hydrochloride tablet, extended release|Physicians Total Care, Inc”.

SMILES strings stand for the structures.

A short description of data set [1]: Evaluation of absolute bioavailability of Alfuzosin hydrochloride following oral administration of 10 mg Alfuzosin hydrochloride tablets under fed conditions. As to conditions: human, in vivo, at 10 mg, dietary status Fed, dosed compound id 46, dosed compound name ALFUZOSIN HYDROCHLORIDE, regimen Single dose, tissue Plasma. In kind it is ADME, organism-based.

Data set [2] can be described thus: Evaluation of pharmacokinetic parameters for Alfuzosin hydrochloride following multiple oral or intravenous administration of Alfuzosin hydrochloride. In kind it is ADME, organism-based. More on the design: dose 10 mg, route oral. As to conditions: human, in vivo, dosed compound id 46, dosed compound name ALFUZOSIN HYDROCHLORIDE, regimen Multiple dose, tissue Plasma.

Usually bioavailability stands for dose-corrected exposure relative to a reference, in per cent. In general, Cmax refers to the peak of the concentration-time curve. Usually AUC stands for the area under the concentration-time curve, a measure of exposure. The Tmax is the time at which the peak concentration occurs. What is called half-life is how long it takes for the measured level to halve. Higher therefore signals slow loss. In data set [1], `COc1cc2nc(N(C)CCCNC(=O)C3CCCO3)nc(N)c2cc1OC.Cl` (stereo unspecified) [ALFUZOSIN HYDROCHLORIDE] came in with a bioavailability of 49%. For the same compound, the peak level in data set [2] (po, 10 mg, dietary status Fed) (Cmax) was 13.6 ng/mL. In data set [2] (po, 10 mg, dietary status Fed, read-out: AUC(0-24)), the AUC is 194 ng·h/mL. In addition, the Tmax in data set [2] (dietary status Fed, dose 10 mg, route oral) was 8 h. The half-life in data set [2] (dose 10 mg, route oral) was 10 h. In addition, in data set [2] (gender male, route iv), the Vd came to 3.2 L/kg.
